Assay results from patent US10172875B2, “Therapeutic combinations comprising anti-FOLR1 immunoconjugates” (ImmunoGen, Inc., priority 2015, dated 2019).
Like-named read-outs stand apart in the source and are kept apart here.

Experiments:
IGROV-1 cells = assay: Cell cycle analysis, IMGN853 and carboplatin (FIG. 9B); type: cell-based; details: carboplatin 20 μM, IMGN853 8 nM, alone or combined, 6 hours, then 24 hour drug-free medium
Method: Cells were washed, and cell cycle distribution determined following 24 hour culture in drug-free medium.

[1] = test system: H2110 non-small cell lung cancer (NSCLC) tumor xenografts; details: for CR / PR: responders/animals
Method: Mice were randomized into groups (n=6-10 per group) by tumor volume and subsequently dosed on Day 7 post-inoculation. All treatments consisted of single doses (1×).
Tumor volumes were measured one to two times weekly in three dimensions using a caliper. The tumor volume was expressed in mm^3 using the formula V=Length×Width×Height×½ (Tomayko 1989). Body weights were measured twice per week as an index of test agent toxicity. Activity was assessed as described in Bissery et al. (1991).

[2] = test system: ST088 human epithelial ovarian cancer patient derived tumor xenografts; assay: Antitumor activity of IMGN853, PLD and combination in ST088 tumor model (Example 1); type: in vivo, SCID mice
Method: Tumor volumes were measured twice weekly in three dimensions using a caliper. […] FIG. 1 depicts the results.

[3] = IMGN853 1.5 mg/kg 1×, alone or with bevacizumab 5 mg/kg 1×
[4] = IMGN853 3 mg/kg 1× and/or bevacizumab 5 mg/kg 1×
[5] = IMGN853 5 mg/kg QWx2 and/or PLD 4 mg/kg QWx2
[6] = IMGN853 5 mg/kg QWx2 and/or PLD 4 mg/kg QWx2, responders/animals

In the case of IMGN853, the cell cycle distribution (IGROV-1 cells) is reported as “enrichment of cells in G2/M”, the T/C [1, 3] is reported as 64% and the TFS [1, 3] is reported as 0/6. The antitumor activity rating [1, 3] was “inactive”, the CR [1, 3] was 0/6 and the PR [1, 3] was 1/6. For the same substance, the body weight loss ([1]; IMGN853 1.5 mg/kg monotherapy, Day 25 post-inoculation) was 8%, the T/C [1, 4] was 25% and the TFS [1, 4] was 0/6. For the same substance, the antitumor activity rating [1, 4] was “active”, the CR [1, 4] was 0/6 and the PR [1, 4] was 2/6. For the same substance, the body weight loss ([1]; IMGN853 3 mg/kg monotherapy, Day 42 post-inoculation) was 9%, the “tolerability / body weight” value ([2]; IMGN853 5 mg/kg QWx2) was “well tolerated with no notable body weight loss observed” and the T/C [2, 5] was 31%. The antitumor activity rating [2, 5] was “active”, the “complete responses (CR)” value [2, 6] was 0/8 and the “partial responses (PR)” value [2, 6] was 0/8.
